Data from US20070276022A1, “Optically Active Carboxamides” (priority 2003, published 2007).

Key:
Format in all cases: in vivo
Alternaria solani = assay: Alternaria test (tomato)/protective; conditions: protective, 50 g/ha, evaluation 3 days after inoculation
Method: (§1) For the production of an appropriate active compound preparation 1 part by weight of active compound is mixed with the given amount of solvent and emulsifier and the concentrate is diluted to the desired concentration with water.
(§2) For the investigation of the protective activity young plants are sprayed with the active compound preparation in the amount specified. After drying of the spray coating the plants are inoculated with an aqueous spore suspension of Alternaria solani. The plants are then placed in an incubator at ca. 20° C. and a relative humidity of 100%.
Evaluation is carried out 3 days after the inoculation. A level of activity of 0% corresponds the level of activity of the control, whereas a level of activity of 100% means that no infestation is observed.

Venturia inaequalis = assay: Venturia test (apple)/protective; conditions: protective, evaluation 10 days after inoculation
Method: as §1
as §2, with “conidial” for “spore”, “the apple scab pathogen Venturia inaequalis” for “Alternaria solani. The plants are”, “left for 1 day” for “placed”
The plants are then placed in a greenhouse at ca. 21° C. and a relative humidity of ca. 90%.
(§3) Evaluation is carried out 10 days after the inoculation. A level of activity of 0% corresponds to the level of activity of the control, whereas a level of activity of 100% means that no infestation is observed.

Botrytis cinera = assay: Botrytis test (bean)/protective; conditions: protective, evaluation 2 days after inoculation
Method: as §1
For the investigation the protective activity young plants are sprayed with the active compound preparation in the amount specified. After drying of the spray coating 2 small pieces of agar coated with Botrytis cinera are placed on each leaf. The inoculated plants are then placed in a darkened room at ca 20° C. and a relative humidity of 100%.
The size of the infestation spots on the leaves are evaluated 2 days after the inoculation. A level of activity of 0% corresponds to the level of activity of the control, whereas a level of activity of 100% means that no infestation is observed.

Sphaerotheca fuliginea = assay: Sphaerotheca test (cucumber)/protective; conditions: protective, evaluation 7 days after inoculation
Method: as §1
as §2, with “young cucumber” for “young”, “Sphaerotheca fuliginea.” for “Alternaria solani.”, “a greenhouse” for “an incubator”, “23°” for “20°”, “ca. 70%.” for “100%.”
Evaluation is carried out 7 days after the inoculation. A level of activity of 0% corresponds to the level of activity of the control, whereas a level of activity of 100% means that no infestation is observed.

Podosphaera leucotricha = assay: Podosphaera test (apple)/protective; conditions: protective, evaluation 10 days after inoculation
Method: as §1
For the investigation for the protective activity young plants are sprayed with the active compound preparation in the amount specified. After drying of the spray coating the plants are inoculated with an aqueous spore suspension of the apple mildew pathogen Podosphaera leucotricha. The plants are then placed in a greenhouse at ca. 23° C. and a relative humidity of ca. 70%.
as §3

Compound: CC(C)C[C@H](C)c1ccccc1NC(=O)c1cn(C)cc1C(F)(F)F [drawing 79]
- Level of activity in % (Alternaria solani): 83%

Compound: CC(C)C[C@H](C)c1ccccc1NC(=O)c1ccccc1C(F)(F)F [drawing 61]
- Level of activity in % (Venturia inaequalis; 25 g/ha): 100%

Compound: Cc1nn(C)c(F)c1C(=O)Nc1ccccc1[C@@H](C)CC(C)C [drawing 57]
- Level of activity in % (Venturia inaequalis; 25 g/ha): 100%

Compound: CC(C)C[C@H](C)c1ccccc1NC(=O)c1ccccc1C(F)(F)F [drawing 73]
- Level of activity in % (Botrytis cinera; 250 g/ha): 90%

Compound: CC(C)C[C@@H](C)c1ccccc1NC(=O)c1ccccc1I [drawing 64]
- Level of activity in % (Venturia inaequalis; 25 g/ha): 16%

Compound: CC(C)C[C@@H](C)c1ccccc1NC(=O)c1ccccc1I [drawing 76]
- Level of activity in % (Botrytis cinera; 250 g/ha): 0%

Compound: Cc1nn(C)c(F)c1C(=O)Nc1ccccc1[C@@H](C)CC(C)C [drawing 47]
- Level of activity in % (Sphaerotheca fuliginea; 25 g/ha): 96%

Compound: CC(C)C[C@@H](C)c1sccc1NC(=O)c1cn(C)nc1C(F)(F)F [drawing 54]
- Level of activity in % (Sphaerotheca fuliginea; 3.125 g/ha): 35%

Compound: Cc1nn(C)c(F)c1C(=O)Nc1ccccc1[C@H](C)CC(C)(C)C [drawing 60]
- Level of activity in % (Venturia inaequalis; 25 g/ha): 0%

Compound: CC(C)C[C@H](C)c1ccccc1NC(=O)c1ccccc1I [drawing 75]
- Level of activity in % (Botrytis cinera; 250 g/ha): 86%

Compound: CC(C)C[C@@H](C)c1ccccc1NC(=O)c1cn(C)cc1C(F)(F)F [drawing 80]
- Level of activity in % (Alternaria solani): 30%

Compound: CC(C)C[C@@H](C)c1ccccc1NC(=O)c1ccccc1C(F)(F)F [drawing 62]
- Level of activity in % (Venturia inaequalis; 25 g/ha): 0%

Compound: Cc1nn(C)c(F)c1C(=O)Nc1ccccc1[C@@H](C)CC(C)C [drawing 69]
- Level of activity in % (Botrytis cinera; 250 g/ha): 100%

Compound: CC(C)C[C@H](C)c1ccccc1NC(=O)c1cn(C)cc1C(F)(F)F [drawing 55]
- Level of activity in % (Sphaerotheca fuliginea; 50 g/ha): 91%

Compound: CC(C)C[C@@H](C)c1ccccc1NC(=O)c1cn(C)cc1C(F)(F)F [drawing 56]
- Level of activity in % (Sphaerotheca fuliginea; 50 g/ha): 23%

Compound: CC(C)C[C@@H](C)c1ccccc1NC(=O)c1cn(C)cc1C(F)(F)F [drawing 42]
- Level of activity in % (Podosphaera leucotricha; 12.5 g/ha): 28%

Compound: CC(C)C[C@@H](C)c1ccccc1NC(=O)c1ccccc1C(F)(F)F [drawing 74]
- Level of activity in % (Botrytis cinera; 250 g/ha): 18%

Compound: Cc1nn(C)c(F)c1C(=O)Nc1ccccc1[C@@H](C)CC(C)(C)C [drawing 71]
- Level of activity in % (Botrytis cinera; 250 g/ha): 100%

Compound: Cc1nn(C)c(F)c1C(=O)Nc1ccccc1[C@H](C)CC(C)(C)C [drawing 46]
- Level of activity in % (Sphaerotheca fuliginea; 25 g/ha): 0%

Compound: CC(C)C[C@H](C)c1ccccc1NC(=O)c1cn(C)cc1C(F)(F)F [drawing 67]
- Level of activity in % (Venturia inaequalis; 50 g/ha): 100%

Compound: CC(C)C[C@@H](C)c1ccccc1NC(=O)c1cn(C)cc1C(F)(F)F [drawing 78]
- Level of activity in % (Botrytis cinera; 62.5 g/ha): 50%

Compound: CC(C)C[C@H](C)c1ccccc1NC(=O)c1ccccc1I [drawing 63]
- Level of activity in % (Venturia inaequalis; 25 g/ha): 100%

Compound: CC(C)C[C@H](C)c1ccccc1NC(=O)c1ccccc1C(F)(F)F [drawing 39]
- Level of activity in % (Podosphaera leucotricha; 50 g/ha): 100%

Compound: Cc1nn(C)c(F)c1C(=O)Nc1ccccc1[C@@H](C)CC(C)(C)C [drawing 45]
- Level of activity in % (Sphaerotheca fuliginea; 25 g/ha): 94%

Compound: Cc1nn(C)c(F)c1C(=O)Nc1ccccc1[C@H](C)CC(C)C [drawing 58]
- Level of activity in % (Venturia inaequalis; 25 g/ha): 21%

Compound: Cc1nn(C)c(F)c1C(=O)Nc1ccccc1[C@@H](C)CC(C)(C)C [drawing 59]
- Level of activity in % (Venturia inaequalis; 25 g/ha): 100%

Compound: Cc1nn(C)c(F)c1C(=O)Nc1ccccc1[C@H](C)CC(C)C [drawing 44]
- Level of activity in % (Sphaerotheca fuliginea; 25 g/ha): 7%

Compound: CC(C)C[C@H](C)c1sccc1NC(=O)c1cn(C)nc1C(F)(F)F [drawing 65]
- Level of activity in % (Venturia inaequalis; 3.125 g/ha): 100%

Compound: CC(C)C[C@@H](C)c1ccccc1NC(=O)c1ccccc1C(F)(F)F [drawing 40]
- Level of activity in % (Podosphaera leucotricha; 50 g/ha): 20%

Compound: CC(C)C[C@H](C)c1sccc1NC(=O)c1cn(C)nc1C(F)(F)F [drawing 53]
- Level of activity in % (Sphaerotheca fuliginea; 3.125 g/ha): 98%

Compound: CC(C)C[C@H](C)c1ccccc1NC(=O)c1cn(C)cc1C(F)(F)F [drawing 41]
- Level of activity in % (Podosphaera leucotricha; 12.5 g/ha): 98%

Compound: CC(C)C[C@@H](C)c1ccccc1NC(=O)c1ccccc1I [drawing 52]
- Level of activity in % (Sphaerotheca fuliginea; 25 g/ha): 15%

Compound: Cc1nn(C)c(F)c1C(=O)Nc1ccccc1[C@H](C)CC(C)(C)C [drawing 72]
- Level of activity in % (Botrytis cinera; 250 g/ha): 14%

Compound: CC(C)C[C@@H](C)c1ccccc1NC(=O)c1cn(C)cc1C(F)(F)F [drawing 68]
- Level of activity in % (Venturia inaequalis; 50 g/ha): 20%

Compound: CC(C)C[C@H](C)c1ccccc1NC(=O)c1ccccc1I [drawing 51]
- Level of activity in % (Sphaerotheca fuliginea; 25 g/ha): 85%

Compound: CC(C)C[C@H](C)c1ccccc1NC(=O)c1cn(C)cc1C(F)(F)F [drawing 77]
- Level of activity in % (Botrytis cinera; 62.5 g/ha): 100%

Compound: CC(C)C[C@@H](C)c1sccc1NC(=O)c1cn(C)nc1C(F)(F)F [drawing 66]
- Level of activity in % (Venturia inaequalis; 3.125 g/ha): 7%

Compound: Cc1nn(C)c(F)c1C(=O)Nc1ccccc1[C@H](C)CC(C)C [drawing 70]
- Level of activity in % (Botrytis cinera; 250 g/ha): 29%
